Here are results for two compounds from US11512053B2, “Arginine methyltransferase inhibitors and uses thereof” (priority 2013, dated 2022).

Experiment [1] has as its system mono-methyl arginine in RKO cells. In words: RKO Methylation Assay, In Cell Western (ICW) for detection of mono-methyl arginine and DNA content. The class given is cell-based. Particulars: for EC30: Homo sapiens, RKO, 72 h. The source says: RKO adherent cells were purchased from ATCC (American Type Culture Collection), Manassas, Va., USA. DMEM/Glutamax medium, penicillin-streptomycin, heat inactivated fetal bovine serum, 0.05% trypsin and D-PBS were purchased from Life Technologies, Grand Island, N.Y., USA. Odyssey blocking buffer, 800 CW goat anti-rabbit IgG (H+L) antibody, and Licor Odyssey infrared scanner were purchased from Licor Biosciences, Lincoln, Nebr., USA. Mono-methyl arginine antibody was purchased from Cell Signaling Technology, Danvers, Mass., USA. Methanol was purchased from VWR, Franklin, Mass., USA. 10% Tween 20 was purchased from KPL, Inc., Gaithersburg, Md., USA. DRAQ5 was purchased from Biostatus Limited, Leicestershire, UK.
RKO adherent cells were maintained in growth medium (DMEM/Glutamax medium supplemented with 10% v/v heat inactivated fetal bovine serum and 100 units/mL penicillin-streptomycin) and cultured at 37° C. under 5% CO2.
Cell treatment, In Cell Western (ICW) for detection of mono-methyl arginine and DNA content. […] Compound (100 nL) from a 96-well source plate was added directly to 384 well cell plate. Plates were incubated at 37° C., 5% CO2 for 72 hours. After three days of incubation, plates were brought to room temperature outside of the incubator for ten minutes and blotted on paper towels to remove cell media. 50 μL of ice cold 100% methanol was added directly to each well and incubated for 30 min at room temperature. After 30 min, plates were transferred to a Biotek EL406 plate washer and washed 2 times with 100 μL per well of wash buffer (1×PBS). Next 60 μL per well of Odyssey blocking buffer (Odyssey Buffer with 0.1% Tween 20 (v/v)) were added to each plate and incubated 1 hour at room temperature. Blocking buffer was removed and 20 μL per well of primary antibody was added (mono-methyl arginine diluted 1:200 in Odyssey buffer with 0.1% Tween 20 (v/v)) and plates were incubated overnight (16 hours) at 4° C. Plates were washed 5 times with 100 μL per well of wash buffer. […] The plates were washed 5 times with 100 μL per well wash buffer then 2 times with 100 μL per well of water. Plates were allowed to dry at room temperature then imaged on the Licor Odyssey machine which measures integrated intensity at 700 nm and 800 nm wavelengths. Both 700 and 800 channels were scanned.
Calculations: First, the ratio for each well was determined by:
Each plate included fourteen control wells of DMSO only treatment (minimum activation) as well as fourteen control wells for maximum activation treated with 20 μM of a reference compound. The average of the ratio values for each control type was calculated and used to determine the percent activation for each test well in the plate. Reference compound was serially diluted three-fold in DMSO for a total of nine test concentrations, beginning at 20 μM. Percent activation was determined and EC30 curves were generated using triplicate wells per concentration of compound.

Experiment [2] has as its target full-length human PRMT8 isoform 1 (Homo sapiens, UniProt Q9NR22). In words: PRMT8 Biochemical Assay (3H-SAM Flashplate, peptide substrate). Particulars: single experiment or average of multiple experiments; read-out: Biochemical IC50 PRMT8. An excerpt:
General Materials. S-adenosylmethionine (SAM), S-adenosylhomocysteine (SAH), bicine, Tween20, dimethylsulfoxide (DMSO), bovine skin gelatin (BSG), isopropyl-β-D-thiogalactopyranoside (IPTG), and Tris(2-carboxyethyl)phosphine hydrochloride solution (TCEP) were purchased from Sigma-Aldrich at the highest level of purity possible. ^3H-SAM was purchase from American Radiolabeled Chemicals with a specific activity of 80 Ci/mmol. 384-well streptavidin Flashplates were purchased from PerkinElmer.
Substrates. Peptide representative of human histone H4 residues 31-45 was synthesized with an N-terminal linker-affinity tag motif and a C-terminal amide cap by 21st Century Biochemicals. The peptide was purified by high-performance liquid chromatography (HPLC) to greater than 95% purity and confirmed by liquid chromatography mass spectrometry (LC-MS). The sequence was Biot-Ahx-[…]-amide (SEQ ID NO.:8).
The resulting construct encodes an N-terminal GST tag and a thrombin cleavage sequence ([…] […] […] […] SPEF) (SEQ ID NO.:9) fused directly to Met 1 of PRMT8.
Protein Expression. E. coli (BL21(DE3) Gold, Stratagene) made competent by the CaCl2) method were transformed with the PRMT8 construct and ampicillin selection. Protein over-expression was accomplished by growing the PRMT8 expressing E. coli clone and inducing expression with 0.3 mM IPTG at 16° C. The culture was grown for 12 hours, harvested by centrifugation, and stored at −80° C. for purification.
Protein Purification. […] GST-tagged PRMT8 was eluted with 50 mM Tris, 2 mM glutathione, pH 7.8. Pooled fractions were cleaved by thrombin (10U) and dialysed in buffer A. GST was removed by reloading the cleaved protein sample onto glutathione sepharose column and PRMT8 was collected in the flow-through fractions. PRMT8 was purified further by ceramic hydroxyapatite chromatography. The column was washed with 50 mM phosphate buffer, 100 mM NaCl, 5% glycerol, 5 mM β-mercaptoethanol, pH 7.8 and PRMT8 was eluted by 100 mM phosphate in the same buffer. Protein was concentrated and buffer was exchanged to 50 mM Tris, 300 mM NaCl, 10% glycerol, 5 mM β-mercaptoethanol, pH 7.8 by ultrafiltration. The purity of recovered protein was 89%.
General Procedure for PRMT8 Enzyme Assays on Peptide Substrates. The assays were all performed in a buffer consisting of 20 mM Bicine (pH=7.6), 1 mM TCEP, 0.005% BSG, and 0.002% Tween 20, prepared on the day of use. Compounds in 100% DMSO (1 ul) were spotted into a polypropylene 384-well V-bottom plates (Greiner) using a Platemate Plus outfitted with a 384-channel head (Thermo Scientific). DMSO (1 ul) was added to Columns 11, 12, 23, 24, rows A-H for the maximum signal control and 1 ul of SAH, a known product and inhibitor of PRMT8, was added to columns 11, 12, 23, 24, rows I-P for the minimum signal control. A cocktail (40 ul) containing the PRMT8 enzyme was added by Multidrop Combi (Thermo-Fisher). The compounds were allowed to incubate with PRMT8 for 30 min at room temperature, then a cocktail (10 ul) containing ^3H-SAM and peptide was added to initiate the reaction (final volume=51 ul). The final concentrations of the components were as follows: PRMT8 was 1.5 nM, ^3H-SAM was 50 nM, non-radiolabeled SAM was 550 nM, peptide was 150 nM, SAH in the minimum signal control wells was 1 mM, and the DMSO concentration was 2%. The assays were stopped by the addition of non-radiolabeled SAM (10 ul) to a final concentration of 400 uM, which dilutes the ^3H-SAM to a level where its incorporation into the peptide substrate is no longer detectable. 50 ul of the reaction in the 384-well polypropylene plate was then transferred to a 384-well Flashplate and the biotinylated peptides were allowed to bind to the streptavidin surface for at least 1 hour before being washed once with 0.1% Tween20 in a Biotek ELx405 plate washer. […]

In experiment [3] the target is full-length human PRMT6 (Flag- and His-tagged) (Homo sapiens, UniProt Q96LA8). Kind of experiment: PRMT6 Biochemical Assay (3H-SAM Flashplate, peptide substrate). The source says:
General Materials. S-adenosylmethionine (SAM), S-adenosylhomocysteine (SAH), bicine, Tween20, dimethylsulfoxide (DMSO), bovine skin gelatin (BSG), sodium butyrate and Tris(2-carboxyethyl)phosphine hydrochloride solution (TCEP) were purchased from Sigma-Aldrich at the highest level of purity possible. ^3H-SAM was purchase from American Radiolabeled Chemicals with a specific activity of 80 Ci/mmol. 384-well streptavidin Flashplates were purchased from PerkinElmer.
Substrates. Peptide representative of human histone H4 residues 36-50 was synthesized with an N-terminal linker-affinity tag motif and a C-terminal amide cap by 21st Century Biochemicals. The peptide was purified by high-performance liquid chromatography (HPLC) to greater than 95% purity and confirmed by liquid chromatography mass spectrometry (LC-MS). The sequence was Biot-Ahx-[…]-amide and contained a monomethylated lysine at position 44 (SEQ ID NO.:5).
Molecular Biology: Full-length human PRMT6 (NM_018137.2) transcript clone was amplified from an HEK 293 cDNA library, incorporating a flanking 5′ sequence encoding a FLAG tag ([…]) (SEQ ID NO.:6) fused directly to Ser 2 of PRMT6 and a 3′ sequence encoding a hexa His sequence (HHHHHH) (SEQ ID NO.:17) fused directly to Asp 375. The amplified gene was subcloned into pFastBacMam (Viva Biotech).
Protein Expression. Recombinant baculovirus were generated according to Bac-to-Bac kit instructions (Life Technologies). […] Infections were carried out at 37° C. for 48 hours, harvested by centrifugation, and stored at −80° C. for purification.
Protein Purification. […] Column was washed with 20 mM imidazole in the same buffer and Flag-PRMT6-His was eluted with 150 mM imidazole. Pooled fractions were dialysed against buffer N^1-A and further purified by anti-flag M2 affinity chromatography. Flag-PRMT6-His was eluted with 200 ug/ml FLAG peptide in the same buffer. Pooled fractions were dialysed in 20 mM Tris, 150 mM NaCl, 10% glycerol and 5 mM β-mercaptoethanol, pH 7.8. The purity of recovered protein was 95%.
General Procedure for PRMT6 Enzyme Assays on Peptide Substrates. The assays were all performed in a buffer consisting of 20 mM Bicine (pH=7.6), 1 mM TCEP, 0.005% BSG, and 0.002% Tween 20, prepared on the day of use. Compounds in 100% DMSO (1 ul) were spotted into a polypropylene 384-well V-bottom plates (Greiner) using a Platemate Plus outfitted with a 384-channel head (Thermo Scientific). DMSO (1 ul) was added to Columns 11, 12, 23, 24, rows A-H for the maximum signal control and 1 ul of SAH, a known product and inhibitor of PRMT6, was added to columns 11, 12, 23, 24, rows I-P for the minimum signal control. A cocktail (40 ul) containing the PRMT6 enzyme was added by Multidrop Combi (Thermo-Fisher). The compounds were allowed to incubate with PRMT6 for 30 min at room temperature, then a cocktail (10 ul) containing SAM and peptide was added to initiate the reaction (final volume=51 ul). The final concentrations of the components were as follows: PRMT6 was 1 nM, ^3H-SAM was 200 nM, non-radiolabeled SAM was 250 nM, peptide was 75 nM, SAH in the minimum signal control wells was 1 mM, and the DMSO concentration was 2%. The assays were stopped by the addition of non-radiolabeled SAM (10 ul) to a final concentration of 400 uM, which dilutes the ^3H-SAM to a level where its incorporation into the peptide substrate is no longer detectable. 50 ul of the reaction in the 384-well polypropylene plate was then transferred to a 384-well Flashplate and the biotinylated peptides were allowed to bind to the streptavidin surface for at least 1 hour before being washed once with 0.1% Tween20 in a Biotek ELx405 plate washer. The plates were then read in a PerkinElmer TopCount plate reader to measure the quantity of ^3H-labeled peptide bound to the Flashplate surface, measured as disintegrations per minute (dpm) or alternatively, referred to as counts per minute (cpm). […]

Structures are written as SMILES. Where a name gives a salt, the structure may show the parent alone. Read-outs that look alike come from different tables or passages of the source. Some results are limits rather than exact numbers.

For orientation: EC30 means the point of the concentration-response curve where the effect stands at 30%. As a reminder, the IC50 is the concentration needed to halve the response being measured.

Sequence of full-length human PRMT6 (Flag- and His-tagged) (Q96LA8 with tags, fused parts or gaps): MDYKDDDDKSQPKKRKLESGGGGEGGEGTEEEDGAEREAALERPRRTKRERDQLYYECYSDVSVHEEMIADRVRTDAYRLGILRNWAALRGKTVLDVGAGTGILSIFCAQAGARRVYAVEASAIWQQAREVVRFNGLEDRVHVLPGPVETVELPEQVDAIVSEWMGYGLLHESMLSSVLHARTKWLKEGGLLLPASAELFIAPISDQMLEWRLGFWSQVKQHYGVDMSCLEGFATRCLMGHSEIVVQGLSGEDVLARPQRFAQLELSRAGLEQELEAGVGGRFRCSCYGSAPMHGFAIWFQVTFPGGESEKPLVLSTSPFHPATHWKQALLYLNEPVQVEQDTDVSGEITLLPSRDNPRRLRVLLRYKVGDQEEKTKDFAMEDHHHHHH
Sequence of full-length human PRMT8 isoform 1 (Q9NR22 whole entry, canonical isoform): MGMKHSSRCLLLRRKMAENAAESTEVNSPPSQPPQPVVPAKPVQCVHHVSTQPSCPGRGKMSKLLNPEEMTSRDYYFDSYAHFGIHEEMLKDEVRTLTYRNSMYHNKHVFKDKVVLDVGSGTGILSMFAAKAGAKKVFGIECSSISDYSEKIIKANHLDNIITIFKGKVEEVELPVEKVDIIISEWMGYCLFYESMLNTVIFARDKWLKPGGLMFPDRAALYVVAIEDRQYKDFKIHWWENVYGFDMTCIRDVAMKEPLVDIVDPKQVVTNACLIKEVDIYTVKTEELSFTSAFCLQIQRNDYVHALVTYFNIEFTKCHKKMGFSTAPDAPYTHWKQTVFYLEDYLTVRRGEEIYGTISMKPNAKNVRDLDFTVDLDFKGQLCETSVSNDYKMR

With `CN(CCN)Cc1c[nH]nc1C1CCC(N2CCOCC2)CC1` (stereo not shown) [Compound 43, N^1-methyl-N^1-((3-(4-morpholinocyclohexyl)-1H-pyrazol-4-yl)methyl)ethane-1,2-diamine], the EC30 in experiment [1] (RKO cells, 72 hours incubation, mono-methyl arginine signal normalised to DNA content, single experiment or average of multiple experiments, read-out: In Cell Western EC30) amounted to 2600 nM. Moreover, the “In Cell Western EC30” value in experiment [1] (RKO cells, 72 hours compound incubation, mono-methyl arginine signal normalised to DNA content (DRAQ5), percent activation vs 20 μM reference compound) is “A (“A” indicates an EC30 ≤ 3.00 μM)”. For the same compound, the IC50 in experiment [2] amounted to 11.6 nM.

As to `CCOCC1(COCC)CCC(c2n[nH]cc2CN(C)CCNC)CC1` [Compound 158, ([3-[4,4-bis(ethoxymethyl)cyclohexyl]-1H-pyrazol-4-yl]methyl)(methyl)[2-(methylamino)ethyl]amine hydrochloride salt], the EC30 was less than 3000 nM in experiment [1] (read-out: In Cell Western EC30, RKO cells, 72 hours compound incubation, mono-methyl arginine signal normalised to DNA content (DRAQ5), percent activation vs 20 μM reference compound) and 8 nM in experiment [1] (read-out: In Cell Western EC30, RKO cells, 72 hours incubation, mono-methyl arginine signal normalised to DNA content, single experiment or average of multiple experiments). Besides, the IC50 in experiment [3] (Biochemical IC50 PRMT6) is less than 100 nM; in experiment [3] (Biochemical IC50 PRMT6, single experiment or average of multiple experiments), 91 nM.
